Source: article PMC2990605 (British Journal of Cancer, 2010)

Assay: Adverse events (CTCAEv3.0), worst grade per patient regardless of relation, and laboratory parameters
Assay type: in vivo
Details: human, in vivo
Protocol: Toxicity was evaluated according to common toxicity criteria for adverse events (CTCAEv3.0). The MTD was defined as the dose level(s) at which at least two out of six patients developed DLT.
Toxicity assessment, haematology and clinical biochemistry were performed at baseline and weekly during the study. Physical and ECOG performance status were recorded at baseline and before the next cycle.

CC(C)C[C@@H](C(=O)N[C@H](C(=O)OC1CCCC1)c1ccccc1)[C@H](O)C(=O)NO [tosedostat]
59%: Peripheral sensory neuropathy, patients with events, %
36%: Diarrhoea, patients with events, % | Oedema peripheral, patients with events, %
95%: Fatigue, patients with events, % | Nervous system disorders, patients with events, %
9: Nausea, CTCAE grade 1, patients
14%: Hyperglycaemia, patients with events, % | Hyperhidrosis, patients with events, % | Malaise, patients with events, % | Neoplasms benign, malignant and unspecified (including cysts and polyps), patients with events, %
5: Diarrhoea, CTCAE grade 1, patients | Fatigue, CTCAE grade 1, patients
8: Dizziness, CTCAE grade 1, patients | Myalgia, CTCAE grade 1, patients
5%: Diabetes mellitus, patients with events, % | Eosinophilic myocarditis, patients with events, % | Gastric dilatation, patients with events, % | General physical health deterioration, patients with events, % | Hypercalcaemia, patients with events, %
2: Hyperglycaemia, CTCAE grade 3, patients | Hyperhidrosis, CTCAE grade 1, patients | Neutropenia, CTCAE grade 3, patients | Oedema peripheral, CTCAE grade 2, patients
9%: Cystitis, patients with events, % | Dehydration, patients with events, % | Erythema, patients with events, %
10: Fatigue, CTCAE grade 2, patients
45%: Dizziness, patients with events, % | Myalgia, patients with events, % | Nausea, patients with events, %
50%: Drug hypersensitivity, patients with events, %
1: Cystitis, CTCAE grade 2, patients | Cystitis, CTCAE grade 3, patients | Dehydration, CTCAE grade 2, patients | Dehydration, CTCAE grade 3, patients | Diabetes mellitus, CTCAE grade 3, patients | Dizziness, CTCAE grade 2, patients | Dizziness, CTCAE grade 3, patients | Drug hypersensitivity, CTCAE grade 2, patients | Dry skin, CTCAE grade 3, patients | Erythema, CTCAE grade 1, patients | Erythema, CTCAE grade 3, patients | Gastric dilatation, CTCAE grade 3, patients | General physical health deterioration, CTCAE grade 3, patients | Hypercalcaemia, CTCAE grade 3, patients | Hyperglycaemia, CTCAE grade 2, patients | Hyperhidrosis, CTCAE grade 3, patients | Leukopenia, CTCAE grade 2, patients | Malaise, CTCAE grade 1, patients | Malaise, CTCAE grade 2, patients | Malaise, CTCAE grade 3, patients | Mucosal inflammation, CTCAE grade 2, patients | Myalgia, CTCAE grade 2, patients | Myalgia, CTCAE grade 3, patients | Nausea, CTCAE grade 2, patients | Oedema, CTCAE grade 3, patients | Pollakiuria, CTCAE grade 3, patients
6: Dyspnoea, CTCAE grade 1, patients | Fatigue, CTCAE grade 3, patients | Nasopharyngitis, CTCAE grade 1, patients | Oedema peripheral, CTCAE grade 1, patients | Peripheral sensory neuropathy, CTCAE grade 1, patients
27%: Nasopharyngitis, patients with events, % | Neutropenia, patients with events, %
41%: Cough, patients with events, %
7: Drug hypersensitivity, CTCAE grade 3, patients
0: Cough, CTCAE grade 3, patients | Cough, CTCAE grade 4, patients | Cystitis, CTCAE grade 1, patients | Cystitis, CTCAE grade 4, patients | Dehydration, CTCAE grade 1, patients | Dehydration, CTCAE grade 4, patients | Diabetes mellitus, CTCAE grade 1, patients | Diabetes mellitus, CTCAE grade 2, patients | Diabetes mellitus, CTCAE grade 4, patients | Diarrhoea, CTCAE grade 3, patients | Diarrhoea, CTCAE grade 4, patients | Dizziness, CTCAE grade 4, patients | Drug hypersensitivity, CTCAE grade 4, patients | Dry skin, CTCAE grade 2, patients | Dry skin, CTCAE grade 4, patients | Dyspnoea, CTCAE grade 4, patients | Eosinophilic myocarditis, CTCAE grade 1, patients | Eosinophilic myocarditis, CTCAE grade 2, patients | Eosinophilic myocarditis, CTCAE grade 3, patients | Eosinophilic myocarditis, CTCAE grade 4, patients | Erythema, CTCAE grade 2, patients | Erythema, CTCAE grade 4, patients | Fatigue, CTCAE grade 4, patients | Gastric dilatation, CTCAE grade 1, patients | Gastric dilatation, CTCAE grade 2, patients | Gastric dilatation, CTCAE grade 4, patients | General physical health deterioration, CTCAE grade 1, patients | General physical health deterioration, CTCAE grade 2, patients | General physical health deterioration, CTCAE grade 4, patients | Hypercalcaemia, CTCAE grade 1, patients | Hypercalcaemia, CTCAE grade 2, patients | Hypercalcaemia, CTCAE grade 4, patients | Hyperglycaemia, CTCAE grade 1, patients | Hyperglycaemia, CTCAE grade 4, patients | Hyperhidrosis, CTCAE grade 2, patients | Hyperhidrosis, CTCAE grade 4, patients | Leukopenia, CTCAE grade 1, patients | Leukopenia, CTCAE grade 4, patients | Malaise, CTCAE grade 4, patients | Mucosal inflammation, CTCAE grade 3, patients | Mucosal inflammation, CTCAE grade 4, patients | Myalgia, CTCAE grade 4, patients | Nasopharyngitis, CTCAE grade 2, patients | Nasopharyngitis, CTCAE grade 3, patients | Nasopharyngitis, CTCAE grade 4, patients | Nausea, CTCAE grade 3, patients | Nausea, CTCAE grade 4, patients | Neutropenia, CTCAE grade 1, patients | Neutropenia, CTCAE grade 2, patients | Oedema peripheral, CTCAE grade 3, patients | Oedema peripheral, CTCAE grade 4, patients | Oedema, CTCAE grade 2, patients | Oedema, CTCAE grade 4, patients | Peripheral sensory neuropathy, CTCAE grade 4, patients | Pollakiuria, CTCAE grade 1, patients | Pollakiuria, CTCAE grade 2, patients | Pollakiuria, CTCAE grade 4, patients
3: Diarrhoea, CTCAE grade 2, patients | Drug hypersensitivity, CTCAE grade 1, patients | Dry skin, CTCAE grade 1, patients | Leukopenia, CTCAE grade 3, patients | Peripheral sensory neuropathy, CTCAE grade 3, patients
4: Mucosal inflammation, CTCAE grade 1, patients | Neutropenia, CTCAE grade 4, patients | Oedema, CTCAE grade 1, patients | Peripheral sensory neuropathy, CTCAE grade 2, patients
18%: Dry skin, patients with events, % | Leukopenia, patients with events, %
23%: Mucosal inflammation, patients with events, % | Oedema, patients with events, %
